Test results reported in patent US20180200257A1, “METHODS FOR THE TREATMENT OF INFLAMMATORY DISORDERS” (Galapagos NV, priority 2015, published 2018).

Tested on: subjects with moderately to severely active RA who have an inadequate response to methotrexate (MTX)
Experiment: Study 2 (monotherapy) - Creatinine levels
Type: in vivo, human
Source text: Randomized, double-blind, placebo-controlled, multicenter, phase IIb dose finding study of Compound 1 (dosed as a [Compound 1:HCl:3H2O]) administered for 24 weeks as monotherapy to subjects with moderately to severely active rheumatoid arthritis who have an inadequate response to methotrexate alone
Double-blind, placebo-controlled, monotherapy study in subjects with moderately to severely active RA who have an inadequate response to methotrexate (MTX) (oral or parenteral).
280 subjects randomized to one of 3 doses of Compound 1 (dosed as a [Compound 1:HCl:3H2O]) or to placebo, given once daily (q.d.).
Twelve weeks of treatment with Compound 1 (dosed as a [Compound 1:HCl:3H2O]) at 50 mg, 100 mg, or 200 mg q.d.; or placebo. At Week 12, all subjects on placebo and the subjects on the 50 mg dose who have not achieved 20% improvement in swollen joint count (SJC66) and tender joint count (TJC68) will be assigned to 100 mg q.d. in a blinded fashion and will continue treatment until Week 24. Subjects in the other groups will maintain their randomized treatment until Week 24.
Creatinine levels determination is available at Quest Diagnostics, Clinical Trials, Quest House, 125-135 Staines Road, Hounslow, Middlesex, TW3 3JB, United Kingdom under Catalogue n# 82565. For Study 3, the data are obtained at BARC Europe, 3B,Industrie Park, Zwijnaarde, B-9052 Ghent, Belgium.
The Enzymatic method is based on the determination of sarcosine after conversion of creatinine with the aid of creatininase, creatinase, and sarcosine oxidase. The liberated hydrogen peroxide reacts with 4-aminophenazone and HTIB to form a quinone imine chromogen. The reaction is catalyzed by peroxidase. The color intensity is directly proportional to concentration of creatinine present and can be measured photometrically.
Subjects in the other groups maintained their randomized treatment until Week 24.

[1] = 50 mg q.d. non responders switching to 100 mg q.d. at week 12 (N = 15), week 0
[2] = 50 mg q.d. non responders switching to 100 mg q.d. at week 12 (N = 15), week 1
[3] = 50 mg q.d. non responders switching to 100 mg q.d. at week 12 (N = 15), week 2
[4] = 50 mg q.d. non responders switching to 100 mg q.d. at week 12 (N = 15), week 4
[5] = 50 mg q.d. non responders switching to 100 mg q.d. at week 12 (N = 15), week 8
[6] = 50 mg q.d. non responders switching to 100 mg q.d. at week 12 (N = 15), week 12
[7] = 50 mg q.d. non responders switching to 100 mg q.d. at week 12 (N = 15), week 16
[8] = 50 mg q.d. non responders switching to 100 mg q.d. at week 12 (N = 15), week 20
[9] = 50 mg q.d. non responders switching to 100 mg q.d. at week 12 (N = 15), week 24
[10] = 50 mg q.d. responders (N = 57), week 0
[11] = 50 mg q.d. responders (N = 57), week 1
[12] = 50 mg q.d. responders (N = 57), week 2
[13] = 50 mg q.d. responders (N = 57), week 4
[14] = 50 mg q.d. responders (N = 57), week 8
[15] = 50 mg q.d. responders (N = 57), week 12
[16] = 50 mg q.d. responders (N = 57), week 16
[17] = 50 mg q.d. responders (N = 57), week 20
[18] = 50 mg q.d. responders (N = 57), week 24
[19] = 100 mg q.d. (N = 70), 24 weeks results, week 0
[20] = 100 mg q.d. (N = 70), 24 weeks results, week 1
[21] = 100 mg q.d. (N = 70), 24 weeks results, week 2
[22] = 100 mg q.d. (N = 70), 24 weeks results, week 4

SMILES: O=C(Nc1nc2cccc(-c3ccc(CN4CCS(=O)(=O)CC4)cc3)n2n1)C1CC1 [Compound 1, cyclopropanecarboxylic acid {5-[4-(1,1-dioxo-thiomorpholin-4-ylmethyl)-phenyl]-[1,2,4]triazolo[1,5-a]pyridin-2-yl}-amide]
- Creatinine Mean CFB (50 mg q.d. (N = 72), week 0): 0.00 µmol/L
- Creatinine Mean percentage CFB (50 mg q.d. (N = 72), week 0): 0.00%
- Creatinine Mean CFB (50 mg q.d. (N = 72), week 1): 0.42 µmol/L
- Creatinine Mean percentage CFB (50 mg q.d. (N = 72), week 1): 1.10%
- Creatinine Mean CFB (50 mg q.d. (N = 72), week 2): 1.25 µmol/L
- Creatinine Mean percentage CFB (50 mg q.d. (N = 72), week 2): 2.59%
- Creatinine Mean CFB (50 mg q.d. (N = 72), week 4): 1.32 µmol/L
- Creatinine Mean percentage CFB (50 mg q.d. (N = 72), week 4): 3.01%
- Creatinine Mean CFB (50 mg q.d. (N = 72), week 8): 2.20 µmol/L
- Creatinine Mean percentage CFB (50 mg q.d. (N = 72), week 8): 4.34%
- Creatinine Mean CFB (50 mg q.d. (N = 72), week 12): 3.16 µmol/L
- Creatinine Mean percentage CFB (50 mg q.d. (N = 72), week 12): 6.02%
- Creatinine Mean CFB [1]: 0.0 µmol/L
- Creatinine Mean percentage CFB [1]: 0.00%
- Creatinine Mean CFB [2]: 1.1 µmol/L
- Creatinine Mean percentage CFB [2]: 2.03%
- Creatinine Mean CFB [3]: 2.0 µmol/L
- Creatinine Mean percentage CFB [3]: 3.77%
- Creatinine Mean CFB [4]: 0.6 µmol/L
- Creatinine Mean percentage CFB [4]: 1.58%
- Creatinine Mean CFB [5]: 6.2 µmol/L
- Creatinine Mean percentage CFB [5]: 10.36%
- Creatinine Mean CFB [6]: 0.0 µmol/L
- Creatinine Mean percentage CFB [6]: 0.74%
- Creatinine Mean CFB [7]: 5.9 µmol/L
- Creatinine Mean percentage CFB [7]: 11.14%
- Creatinine Mean CFB [8]: 4.5 µmol/L
- Creatinine Mean percentage CFB [8]: 8.07%
- Creatinine Mean CFB [9]: 5.2 µmol/L
- Creatinine Mean percentage CFB [9]: 9.28%
- Creatinine Mean CFB [10]: 0.0 µmol/L
- Creatinine Mean percentage CFB [10]: 0.00%
- Creatinine Mean CFB [11]: 0.2 µmol/L
- Creatinine Mean percentage CFB [11]: 0.86%
- Creatinine Mean CFB [12]: 1.0 µmol/L
- Creatinine Mean percentage CFB [12]: 2.27%
- Creatinine Mean CFB [13]: 1.5 µmol/L
- Creatinine Mean percentage CFB [13]: 3.40%
- Creatinine Mean CFB [14]: 1.1 µmol/L
- Creatinine Mean percentage CFB [14]: 2.67%
- Creatinine Mean CFB [15]: 4.0 µmol/L
- Creatinine Mean percentage CFB [15]: 7.51%
- Creatinine Mean CFB [16]: 1.9 µmol/L
- Creatinine Mean percentage CFB [16]: 3.91%
- Creatinine Mean CFB [17]: 3.6 µmol/L
- Creatinine Mean percentage CFB [17]: 7.19%
- Creatinine Mean CFB [18]: 1.6 µmol/L
- Creatinine Mean percentage CFB [18]: 3.16%
- Creatinine Mean CFB [19]: 0.0 µmol/L
- Creatinine Mean percentage CFB [19]: 0.00%
- Creatinine Mean CFB [20]: 1.2 µmol/L
- Creatinine Mean percentage CFB [20]: 3.00%
- Creatinine Mean CFB [21]: 1.5 µmol/L
- Creatinine Mean percentage CFB [21]: 3.21%
- Creatinine Mean CFB [22]: 1.1 µmol/L
- Creatinine Mean percentage CFB [22]: 3.23%
- Creatinine Mean CFB (100 mg q.d. (N = 70), 24 weeks results, week 8): 3.2 µmol/L
